Measurements published in ChEMBL document CHEMBL1145735, “Synthesis and antitumor activity of novel C-8 ester derivatives of leinamycin” (Bioorg Med Chem Lett, 2003).
Each block holds one compound with its values, some of them ahead of it.

Key:
Mus musculus [1] = test: In vivo antitumor activity against lymphocytic leukemia P388 in mice expressed as maximal increase in life span at an optimal dose of 2 mg/kg.; format: functional
Mus musculus [2] = test: In vivo antitumor activity against murine sarcoma 180 cells at an optimal dose of 2 mg/kg.; format: functional
Mus musculus [3] = test: In vivo antitumor activity against murine sarcoma 180 cells at an optimal dose of 8 mg/kg.; format: functional
Mus musculus [4] = test: Antitumor activity against human Lu-65 tumor cells, at a dose of 5.3 mg/kg upon i.v. administration in nude mice; format: functional; conditions: route intravenous
HeLa = test: In vitro antiproliferative activity against HeLa S3 cells.; format: functional, cell-based; conditions: Homo sapiens
Mus musculus [5] = test: In vivo antitumor activity against murine sarcoma 180 cells at an optimal dose of 16 mg/kg.; format: functional
Mus musculus [6] = test: In vivo antitumor activity against lymphocytic leukemia P388 in mice expressed as maximal increase in life span at an optimal dose of 8 mg/kg.; format: functional
Mus musculus [7] = test: Antitumor activity against human A-2780 tumor cells, at a dose of 12 mg/kg upon i.v. administration in nude mice; format: functional; conditions: route intravenous
Mus musculus [8] = test: Antitumor activity against human Lu-65 tumor cells, at a dose of 12 mg/kg upon i.v. administration in nude mice; format: functional; conditions: route intravenous
Mus musculus [9] = test: In vivo antitumor activity against lymphocytic leukemia P388 in mice expressed as maximal increase in life span at an optimal dose of 4 mg/kg.; format: functional
Mus musculus [10] = test: Antitumor activity against human Lu-65 tumor cells, at a dose of 18 mg/kg upon i.v. administration in nude mice; format: functional; conditions: route intravenous
Mus musculus [11] = test: Antitumor activity against human A-2780 tumor cells, at a dose of 18 mg/kg upon i.v. administration in nude mice; format: functional; conditions: route intravenous
Mus musculus [12] = test: In vivo antitumor activity against lymphocytic leukemia P388 in mice expressed as maximal increase in life span at an optimal dose of 16 mg/kg.; format: functional
Mus musculus [13] = test: Antitumor activity against human HCT116 tumor cells, at a dose of 18 mg/kg upon i.v. administration in nude mice; format: functional; conditions: route intravenous
Mus musculus [14] = test: Antitumor activity against human HCT116 tumor cells, at a dose of 8.0 mg/kg upon i.v. administration in nude mice; format: functional; conditions: route intravenous
Mus musculus [15] = test: Antitumor activity against human Lu-65 tumor cells, at a dose of 8.0 mg/kg upon i.v. administration in nude mice; format: functional; conditions: route intravenous
Mus musculus [16] = test: Antitumor activity against human A-2780 tumor cells, at a dose of 8.0 mg/kg upon i.v. administration in nude mice; format: functional; conditions: route intravenous
Mus musculus [17] = test: Antitumor activity against human HCT116 tumor cells, at a dose of 5.3 mg/kg upon i.v. administration in nude mice; format: functional; conditions: route intravenous
Mus musculus [18] = test: Antitumor activity against human A-2780 tumor cells, at a dose of 5.3 mg/kg upon i.v. administration in nude mice; format: functional; conditions: route intravenous
Mus musculus [19] = test: In vivo antitumor activity against murine sarcoma 180 cells at an optimal dose of 4 mg/kg.; format: functional
Mus musculus [20] = test: Antitumor activity against human Lu-65 tumor cells, at a dose of 8 mg/kg upon i.v. administration in nude mice; format: functional; conditions: route intravenous
Mus musculus [21] = test: In vivo antitumor activity against murine sarcoma 180 cells at an optimal dose of mg/kg.; format: functional
Mus musculus [22] = test: In vivo antitumor activity against murine sarcoma 180 cells at an optimal dose of 1 mg/kg.; format: functional
Mus musculus [23] = test: Antitumor activity against human HCT116 tumor cells, at a dose of 12 mg/kg upon i.v. administration in nude mice; format: functional; conditions: route intravenous
Mus musculus [24] = test: Antitumor activity against human A-2780 tumor cells, at a dose of 8 mg/kg upon i.v. administration in nude mice; format: functional; conditions: route intravenous
Mus musculus [25] = test: Antitumor activity against human HCT116 tumor cells, at a dose of 8 mg/kg upon i.v. administration in nude mice; format: functional; conditions: route intravenous
Mus musculus [26] = test: In vivo antitumor activity against lymphocytic leukemia P388 in mice expressed as maximal increase in life span at an optimal dose of 1 mg/kg.; format: functional

Structure (SMILES): C/C1=C\[C@@H](O)C(=O)/C=C/C=Cc2csc(n2)[C@@H](C)N2C(=O)C[C@@]([C@@](C)(O)C(=O)SCc3oc(=O)oc3C)(CC1)[S+]2[O-] (stereo not given in full)
ILS at 2 mg/kg (Mus musculus [1]): 65% | T/C (Mus musculus [2]): 0.67

Structure (SMILES): COCCOCCOCC(=O)O[C@@H]1/C=C(\C)CC[C@]2([C@@](C)(O)C(=O)SCc3oc(=O)oc3C)CC(=O)N([C@H](C)c3nc(cs3)/C=C/C=C/C1=O)[S+]2[O-] (stereo not given in full)
T/C (Mus musculus [3]): 0.39 | ILS at 2 mg/kg (Mus musculus [1]): 54% | T/C (Mus musculus [4]): 0.35 | IC50 (HeLa): 5.5 nM

Structure (SMILES): C/C1=C\[C@@H](OC(=O)CNC(=O)CCNC(=O)OC(C)(C)C)C(=O)/C=C/C=C/c2csc(n2)[C@@H](C)N2C(=O)C[C@@]([C@@](C)(O)C(=O)SCc3oc(=O)oc3C)(CC1)[S+]2[O-] (stereo not given in full)
T/C (Mus musculus [5]): 0.23 | IC50 (HeLa): 12 nM | ILS at 8 mg/kg (Mus musculus [6]): 70%

Structure (SMILES): C/C1=C\[C@@H](OC(=O)CNC(=O)CNC(=O)OC(C)(C)C)C(=O)/C=C/C=C/c2csc(n2)[C@@H](C)N2C(=O)C[C@@]([C@@](C)(O)C(=O)SCc3oc(=O)oc3C)(CC1)[S+]2[O-] (stereo not given in full)
T/C (Mus musculus [3]): 0.39 | T/C (Mus musculus [7]): 0.51 | T/C (Mus musculus [8]): 0.33 | ILS at 4 mg/kg (Mus musculus [9]): 39% | IC50 (HeLa): 14 nM

Structure (SMILES): C/C1=C\[C@@H](OC(=O)CNC(=O)CCNC(=O)OCc2ccccc2)C(=O)/C=C/C=C/c2csc(n2)[C@@H](C)N2C(=O)C[C@@]([C@@](C)(O)C(=O)SCc3oc(=O)oc3C)(CC1)[S+]2[O-] (stereo not given in full)
T/C (Mus musculus [10]): 0.48 | T/C (Mus musculus [11]): 0.46 | ILS at 16 mg/kg (Mus musculus [12]): 91% | T/C (Mus musculus [13]): 0.64 | T/C (Mus musculus [5]): 0.15 | IC50 (HeLa): 11 nM

Structure (SMILES): C/C1=C\[C@@H](O[C@H]2CCCCO2)C(=O)/C=C/C=Cc2csc(n2)[C@@H](C)N2C(=O)C[C@@]([C@@](C)(O)C(=O)SCc3oc(=O)oc3C)(CC1)[S+]2[O-] (stereo not given in full)
T/C (Mus musculus [14]): 0.48 | T/C (Mus musculus [15]): 0.33 | T/C (Mus musculus [16]): 0.43

Structure (SMILES): C/C1=C\[C@@H](OC(=O)CNC(=O)CNC(=O)c2ccccc2)C(=O)/C=C/C=C/c2csc(n2)[C@@H](C)N2C(=O)C[C@@]([C@@](C)(O)C(=O)SCc3oc(=O)oc3C)(CC1)[S+]2[O-] (stereo not given in full)
T/C (Mus musculus [3]): 0.46 | ILS at 16 mg/kg (Mus musculus [12]): 90% | IC50 (HeLa): 32 nM

Structure (SMILES): C/C1=C\[C@@H](OC(=O)CCNC(=O)CCNC(=O)OCc2ccccc2)C(=O)/C=C/C=C\c2csc(n2)[C@H](C)NC(=O)C[C@@]2(CC1)[S+]([O-])SC(=O)[C@]2(C)O (stereo not given in full)
ILS at 16 mg/kg (Mus musculus [12]): 62% | T/C (Mus musculus [5]): 0.58 | IC50 (HeLa): 61 nM

Structure (SMILES): C/C1=C\[C@@H](OC(=O)CNC=O)C(=O)/C=C/C=C\c2csc(n2)[C@H](C)NC(=O)C[C@@]2(CC1)[S+]([O-])SC(=O)[C@]2(C)O (stereo not given in full)
T/C (Mus musculus [17]): 0.62 | T/C (Mus musculus [4]): 0.43 | IC50 (HeLa): 11 nM | T/C (Mus musculus [18]): 0.29 | T/C (Mus musculus [19]): 0.46 | ILS at 8 mg/kg (Mus musculus [6]): 56%

Structure (SMILES): COCCOCCOCCOCCOCCOCC(=O)O[C@@H]1/C=C(\C)CC[C@]2(CC(=O)N[C@@H](C)c3nc(cs3)/C=C\C=C\C1=O)[S+]([O-])SC(=O)[C@]2(C)O (stereo not given in full)
T/C (Mus musculus [20]): 0.2 | T/C (Mus musculus [3]): 0.3 | IC50 (HeLa): 11 nM

Structure (SMILES): C/C1=C\[C@@H](OC(=O)CNC(=O)OCc2ccccc2)C(=O)/C=C/C=C\c2csc(n2)[C@H](C)NC(=O)C[C@@]2(CC1)[S+]([O-])SC(=O)[C@]2(C)O (stereo not given in full)
T/C (Mus musculus [21]): 0.89 | IC50 (HeLa): 6.2 nM | ILS at 8 mg/kg (Mus musculus [6]): 54%

IC50 (HeLa): 26 nM
Structure (SMILES): COCCOCC(=O)O[C@@H]1/C=C(\C)CC[C@]2(CC(=O)N[C@@H](C)c3nc(cs3)/C=C\C=C\C1=O)[S+]([O-])SC(=O)[C@]2(C)O (stereo not given in full)
T/C (Mus musculus [22]): 0.72

Structure (SMILES): C/C1=C\[C@@H](OC(=O)CNC(=O)CNC(=O)OCc2ccccc2)C(=O)/C=C/C=C\c2csc(n2)[C@H](C)NC(=O)C[C@@]2(CC1)[S+]([O-])SC(=O)[C@]2(C)O (stereo not given in full)
T/C (Mus musculus [3]): 0.3 | T/C (Mus musculus [7]): 0.63 | T/C (Mus musculus [8]): 0.3 | ILS at 4 mg/kg (Mus musculus [9]): 72% | IC50 (HeLa): 23 nM | T/C (Mus musculus [23]): 0.48

Structure (SMILES): C/C1=C\[C@@H](OC(=O)CCNC(=O)CNC(=O)OCc2ccccc2)C(=O)/C=C/C=C\c2csc(n2)[C@H](C)NC(=O)C[C@@]2(CC1)[S+]([O-])SC(=O)[C@]2(C)O (stereo not given in full)
ILS at 16 mg/kg (Mus musculus [12]): 71% | T/C (Mus musculus [5]): 0.69 | IC50 (HeLa): 150 nM

Structure (SMILES): C/C1=C\[C@@H](OC(=O)CNC(=O)[C@@H](C)NC(=O)OCc2ccccc2)C(=O)/C=C/C=C\c2csc(n2)[C@H](C)NC(=O)C[C@@]2(CC1)[S+]([O-])SC(=O)[C@]2(C)O (stereo not given in full)
T/C (Mus musculus [5]): 0.61 | IC50 (HeLa): 34 nM | ILS at 8 mg/kg (Mus musculus [6]): 58%

Structure (SMILES): C/C1=C\[C@@H](OC(=O)CNC(=O)CNC(=O)OC(C)(C)C)C(=O)/C=C/C=C\c2csc(n2)[C@H](C)NC(=O)C[C@@]2(CC1)[S+]([O-])SC(=O)[C@]2(C)O (stereo not given in full)
T/C (Mus musculus [20]): 0.43 | T/C (Mus musculus [3]): 0.22 | T/C (Mus musculus [24]): 0.73 | T/C (Mus musculus [25]): 0.7 | IC50 (HeLa): 20 nM | ILS at 8 mg/kg (Mus musculus [6]): 46%

Structure (SMILES): C/C1=C\[C@@H](OC(=O)CNC(=O)CCNC(=O)OCc2ccccc2)C(=O)/C=C/C=C\c2csc(n2)[C@H](C)NC(=O)C[C@@]2(CC1)[S+]([O-])SC(=O)[C@]2(C)O (stereo not given in full)
T/C (Mus musculus [3]): 0.55 | ILS at 16 mg/kg (Mus musculus [12]): 76% | IC50 (HeLa): 20 nM

Structure (SMILES): CC(=O)NCC(=O)O[C@@H]1/C=C(\C)CC[C@]2(CC(=O)N[C@@H](C)c3nc(cs3)/C=C\C=C\C1=O)[S+]([O-])SC(=O)[C@]2(C)O (stereo not given in full)
T/C (Mus musculus [2]): 0.67 | ILS at 4 mg/kg (Mus musculus [9]): 66% | IC50 (HeLa): 13 nM

Structure (SMILES): C/C1=C\[C@@H](O)C(=O)/C=C/C=C\c2csc(n2)[C@H](C)NC(=O)C[C@@]2(CC1)[S+]([O-])SC(=O)[C@]2(C)O (stereo not given in full)
T/C (Mus musculus [2]): 0.44 | IC50 (HeLa): 28 nM | ILS at 1 mg/kg (Mus musculus [26]): 64%
